Laboratory results taken from US5364871A, “New thiazole derivatives, and pharmaceutical composition comprising the same” (Fujisawa Pharmaceutical Co., Ltd., priority 1989, dated 1994).

What was measured:
[1] = tested on: Gastric secretion; experiment: Test A: Gastric secretion in Heidenhain pouch dogs; type: in vivo; conditions: total acid output, tetragastrin (10 μg/kg/hr) stimulated; 3.2 mg/kg orally; Beagle dogs
Protocol: Test A (Gastric secretion in Heidenhain pouch dogs):
Beagle dogs, weighing about 8-13 kg, were used for the study on gastric secretion. The animals were surgically provided with a vagally denervated Heidenhain pouch. One month or more later, the dogs were fasted overnight. Gastric secretion was stimulated by an intravenous infusion of tetragastrin (10 μg/kg/hr). Gastric samples were collected at 15 min intervals. After its volume was almost constant, test compound (3.2 mg/kg) suspended in 0.1% methyl cellulose solution was administered orally. Acid concentration was determined by titrating an aliquot to pH 7.0 with 0.1N sodium hydroxide solution using automatic titration (Hiranuma RAT-11 Type). Total acid output was calculated by multiplying total volume of gastric samples by acid concentration, and percentage change of total acid output was calculated by comparing with predosing value of test compound.

[2] = tested on: Gastric secretion; experiment: Test C: Gastric secretion from lumen perfused stomach in anesthetized rats; type: in vivo, Male Sprague-Dawley rats; conditions: maximal inhibition of acid output, histamine (3 mg/kg/hr) stimulated, 1 mg/kg intravenously
Protocol: Test C (Gastric secretion from lumen perfused stomach
Male Sprague-Dawley rats weighing about 250 g were used. Rats were deprived of food but allowed free access to water for 24 hours. The animals were anesthetized with 1.25 g/kg urethane intraperitoneally. The abdomen was opened and the gastric lumen was perfured with saline throughout the experiment. The perfusate was titrated by an antotitrator with 25 mM sodium hydroxide as a titrant. Gastric secretion was stimulated by intravenous infusion with histamine (3 mg/kg/hr). After reaching plateau, test compound (1 mg/kg) was given intravenously. Drug effect was expressed as maximal inhibition by acid output.

[3] = tested on: stress ulcer; experiment: Test B: Inhibition of stress ulcer; type: in vivo, male Sprague-Dawley rats; conditions: area of ulcers, restraint and water immersion 7 hours; 32 mg/kg orally; rats
Protocol: Test B (Inhibition of stress ulcer):
Five male Sprague-Dawley rats, aged 7 weeks and weighing about 200 g were used per group for the study on stress ulcer after the fast for 24 hours. Each animal was immobilized in a restrain cage and immersed to a level of the xiphoid in a water bath kept 22° C. Each of the test compounds (32 mg/kg) suspended in 0.1% methylcellulose solution was administered orally just before the immobilization. Seven hours later, the animals were sacrificed and their stomachs were removed. The stomach was then fixed with 2% formalin. The area of ulcers was measured for each animal, and percentage of inhibition was calculated by comparing the mean area of ulcers (mm^2) in the test animals with that in the control animals.

[4] = tested on: HCl-aspirin ulcer; experiment: Test E: Inhibition of HCl-aspirin ulcer; type: in vivo, male Sprague-Dawley rats; conditions: length of ulcers; 32 mg/kg orally 30 minutes before aspirin (200 mg/kg in 0.2N HCl); rats
Protocol: Test E (Inhibition of HCl-aspirin ulcer):
Seven male Sprague-Dawley rats, aged 6 weeks and weighing about 200 g were used per group for the study on HCl-aspirin ulcer after the fast for 24 hours. Each of the test compounds (32 mg/kg) suspended in 0.1% methylcellulose solution was administered orally 30 minutes before aspirin administration. Aspirin, suspended in 0.1% methylcellulose solution containing 0.2N HCl, was administered orally at a dose of 200 mg/kg/10 ml. One hour later, the animals were sacrificed and their stomachs were removed. The stomach was then fixed with 2% formalin. The length of ulcers was measured for each animal, and percentage of inhibition was calculated by comparing the mean length of ulcers (mm) in the test animals with that in the control animals.

[5] = tested on: Helicobacter pyloridis 8008; experiment: Test D: Anti-microbial activity (agar dilution method); type: cell-based; conditions: 72 h, Brucella agar plus 5% lysed horse blood, 37° C., 3 days, 10% CO2
Protocol: Test D (Anti-microbial activity):
In vitro antimicrobial activity was determined by the agar dilution method. Test strain was precultured in Brucella broth containing 5% horse serum at 37° C. for 3 days 10^4 cfu were inoculated with a multipoint replicater onto Brucella agar plus 5% lysed horse blood plate containing serial 2-fold dilutions of each drug at 37° C. for 3 days. Incubation was carried out in an atmosphere of 10% CO2. MIC was read after incubation as the lowest drug concentration that inhibited macroscopic colonial growth.

Compound: CC(=O)NCc1cccc(-c2csc(N=C(N)N)n2)n1 [(a)]
- Inhibition (%) [1]: 95%

Compound: NC(=O)NCc1cccc(-c2csc(N=C(N)N)n2)n1 [(b)]
- Inhibition (%) [2]: 98%

Compound: NC(=O)NCc1nc(-c2csc(N=C(N)N)n2)cs1 [(c)]
- Inhibition (%) [2]: 97%

Compound: CCOC(=O)c1nc(-c2csc(N=C(N)N)n2)cs1 [(d)]
- Inhibition (%) [3]: 93.9%

Compound: CCCCNC(N)=Nc1nc(-c2cccc(CNC(C)=O)n2)cs1 [(e)]
- Inhibition (%) [4]: 98.1%
- MIC [5]: 0.78 µg/mL
